Assay results taken from PMC8765781, “A platform of assays for the discovery of anti-Zika small-molecules with activity in a 3D-bioprinted outer-blood-retina model” (PLoS ONE, 2022).
pIC50: −log10 of the molar value. Like-named read-outs stand apart in the source and are kept apart here.

Legend:
[1] = tested on: ZIKV-RLuc (Cambodian strain FSS13025); test: microbe, parasite or virus in culture; type: cell-based, Zika virus; conditions: for pIC50: read-out: Rluc-ZIKV (ZIKV Antiviral Assays), IC50
[2] = tested on: ZIKV-mCherry (Cambodian strain FSS13025); test: microbe, parasite or virus in culture; type: cell-based, Zika virus
[3] = tested on: wild-type ZIKV (Ugandan MR766 strain) in Vero cells; test: ZIKV cytopathic effect (CPE) inhibition qHTS assay, CellTiter-Glo readout; type: cell-based, Zika virus; conditions: for pIC50: read-out: ZIKV-infection (CPE, ZIKV Antiviral Assays), IC50
in vitro [4] = conditions: African green monkey
in vitro [5] = conditions: human
[6] = tested on: caspase-3 activity induced by ZIKV in Vero cells; test: cells; type: cell-based; conditions: read-out: Caspase 3 (ZIKV Antiviral Assays), IC50
[7] = tested on: DENV (Dengue virus type 2, strain New Guinea C)
[8] = tested on: mCherry-ZIKV in human neuronal progenitor cells; test: microbe, parasite or virus in culture; type: cell-based, Zika virus
[9] = Zika virus, Vero, read-out: Log AC50 (M) (converted)
[10] = Zika virus, Vero, from Hill fit of the response curve, 50% of maximum activity response, 194 cherry-picked compounds, protocol name not given, read-out: AC50
[11] = Zika virus, Vero, potency in log units (Molar) from Hill fit of the response curve, 194 cherry-picked compounds, protocol name not given, read-out: Log AC50 (converted)
[12] = Zika virus, Vero cells, wild-type ZIKV MOI 1, 48 hr, unit inferred
[13] = difference between neutral response and maximum compound response
[14] = Zika virus, ZIKV-infected Vero cells, 48 hr, unit inferred

Row | SMILES | pIC50 ([1]; Zika virus, Vero, 48 h) | CC-v2 (curve class of the dose response curve) [2] | Efficacy (difference between neutral response and maximum compound response) [2] | Max Resp (difference between neutral response and response at highest compound concentration) [2] | AC50 ([2]; Zika virus, Vero) | AC50 [2, 9] | Efficacy [3] | AC50 ([3]; Zika virus, Vero) | pIC50 ([3]; Zika virus, Vero, 48 h) | AC50 [3, 9] | CC50 (in vitro [5]) | pIC50 ([6]; Zika virus, Vero, 48 h) | CC-v2 (curve class classification of the dose response curve) [3] | CC50 at 48 h (in vitro [4]; Vero cells) | also measured
1 | O=C(O)Cc1cc(I)c(Oc2ccc(O)c(I)c2)c(I)c1 [NCGC00016227-08] | 4.63 | -1.3 | -57.778 | -100.305 | 1.5e-05 M | 1.5e-05 M | -29.653 | 2.91e-05 M | 4.54 | 2.91e-05 M | > 30 µM | < 4.32 |  |  | CC50 at 48 h (in vitro [4]): > 50 µM
2 | Cc1ccc2c(c1)Cc1c(C(=O)NN3CCCCC3)nn(-c3ccc(Cl)cc3Cl)c1-2 [NCGC00167846-01] |  | -1.3 | -70.543 | -100.29 | 6.7e-07 M | 6.7e-07 M |  |  |  |  |  |  |  |  | Activity against ZIKV (ZIKV): active against both DENV and ZIKV; SI value ZIKV (CC50/EC50) (ZIKV): 31; ZIKV active Yes/No (ZIKV): Yes; CC-v2 (curve class classification v2 of the dose response curve) [1]: -1.1; Efficacy (difference between neutral response and maximum compound response) [1]: -95.949; Max Resp (difference between neutral response and compound response for highest compound concentration) [1]: -99.943; AC50 ([1]; Zika virus, Vero): 4.14e-06 M; AC50 [1, 9]: 4.14e-06 M; AC50 (Vero cells): 4.14 µM; Log AC50 (M) (Vero cells): -5.3827 M; WHV active Yes/No (WNV (Kern515/WN02)): No; Activity against DENV [7]: active against both DENV and ZIKV; DENV active Yes/No [7]: Yes; SI value DENV (CC50/EC50) [7]: 16; YFV active Yes/No (YFV (YFV 17D)): No; Antiviral activity in human NPC [8]: effectively inhibited ZIKV in NPC cells; Efficacy [8]: -97.35; Max Resp [8]: -80.167; AC50 ([8]; Zika virus, Neuronal progenitor cell): 3.98e-05 M; AC50 ([8]; Zika virus, Neuronal progenitor cell, read-out: Log AC50 (M) (converted)): 3.98e-05 M
3 | CCC(C)C1NC(=O)C(C(C)=O)=C1O (stereo not shown) [NCGC00168879-02] | 4.92 | -1.2 | -63.104 | -99.611 | 2.17e-05 M | 2.17e-05 M | -73.15 | 2.11e-05 M | 4.68 | 2.11e-05 M | > 30 µM | 5.42 | -1.2 |  | CC50 (in vitro [4]): > 50 µM
4 | COc1c(C(C)C)cc2c(c1O)[C@@]1(C(=O)O)CCCC(C)(C)C1CC2 (stereo partly shown) [NCGC00169945-03] | 4.79 | -2.3 | -78.993 | -100.305 | 1.47e-05 M | 1.47e-05 M |  |  |  |  | 12.5 µM |  |  |  | AC50 [3, 10]: 1.43e-05 M; AC50 [3, 11]: 1.43e-05 M; pIC50 [3, 12]: 4.84; Efficacy [3, 13]: -27.847; CC50 at 48 h (in vitro [4]): > 50 µM; pIC50 [6, 14]: 4.69
5 | CC1=C[C@H]2O[C@@H]3[C@H](O)C[C@](C)([C@@]2(CO)[C@H](O)C1=O)[C@]31CO1 [NCGC00180572-02, vomitoxin] |  | -1.1 | -87.951 | -98.582 |  |  | -38.561 |  |  |  |  |  |  |  | ZIKV active Yes/No (ZIKV): Yes; pIC50 [1]: 6.13; Log AC50 (M) [2]: -7.0741 M; AC50 ([2]; read-out: AC50): 8.43e-08 M; WHV active Yes/No (WNV (Kern515/WN02)): Yes; DENV active Yes/No [7]: Yes; Log AC50 (M) [3]: -6.2862 M; Max Resp [3]: -28.893; AC50 ([3]; read-out: AC50): 5.17e-07 M; pIC50 [3]: 6.28; pIC50 [6]: 6.13; YFV active Yes/No (YFV (YFV 17D)): Yes; CC-v2 (curve class) [8]: -1.1; Efficacy [8]: -97.398; Log AC50 (M) [8]: -5.35 M; Max Resp [8]: -88.056; AC50 ([8]; read-out: AC50): 4.47e-06 M; pIC50 ([8]; read-out: IC50 in NPC): 5.36; pIC50 ([8]; read-out: NPC (ZIKV Antiviral Assays), IC50): 5.35
6 | C=C(C)C1Cc2c(ccc3c2OCC(c2ccc(O)cc2O)C3)O1 (stereo not shown) [NCGC00347653-02] | 7.70 | 5 | 33.59 | -97.958 |  |  | -16.545 | 7.18e-08 M | 7.15 |  | > 30 µM | 4.79 |  | > 50 µM | Curve class [3]: -3; AC50 ([3]; Zika virus, Vero, read-out: Log AC50 (converted)): 7.18e-08 M; Emax ([3]; Zika virus, Vero, read-out: Max response): -30.5%
7 | C[C@H]1CC[C@@]2(OC1)O[C@H]1CC3C4CC=C5C[C@H](O)C[C@@H](O[C@@H]6O[C@@H](C)[C@H](O)[C@@H](O)[C@H]6O[C@@H]6O[C@@H](C)[C@H](O)[C@@H](O)[C@H]6O)[C@]5(C)C4CC[C@]3(C)[C@H]1[C@@H]2C (stereo partly shown) [NCGC00380128-01, Ophiopogonin B] | 5.06 | -1.4 | -59.028 | -100.132 |  |  |  |  |  |  | > 30 µM |  |  |  | AC50 [3, 10]: 1.72e-05 M; AC50 [3, 11]: 1.72e-05 M; pIC50 [3, 12]: 4.76; CC-v2 (curve class classification of the dose response curve) ([3]; curve class v2 (Inglese et al. 2006)): -2.2; Efficacy [3, 13]: -28.987; CC50 at 48 h (in vitro [4]): > 50 µM; pIC50 [6, 14]: < 4.32
8 | COc1ccc([C@H]2OC[C@H]3O[C@@H](O[C@H]4[C@@H]2NC[C@@H]4O)[C@H](O)[C@H]3O)cc1 [NCGC00380307-01] | 5.64 | -1.2 | -48.259 | -100.305 | 1.31e-07 M | 1.31e-07 M | -66.527 | 2.27e-05 M | 4.64 | 2.27e-05 M | > 30 µM | 5.19 | -1.2 | > 50 µM | 
9 | C=C(CO)[C@@]12O[C@@H]1[C@@]1(C)C(=CC2=O)CC[C@@H](O)[C@@H]1C [NCGC00380396-01] | 5.38 | -1.2 | -43.557 | -98.628 | 1.34e-06 M | 1.34e-06 M | -65.778 | 8.2e-06 M | 5.09 | 8.2e-06 M | > 30 µM | 8.00 | -1.2 |  | CC50 (in vitro [4]): > 50 µM
10 | COc1cc2c(cc1OC)[C@@H]1[C@H](O)[C@@H](OC)C=C3CCN(C2)[C@H]31 [NCGC00384634-01] | 5.34 | -1.2 | -42.96 | -99.819 | 8.26e-07 M | 8.26e-07 M | -55.9 | 5.7e-06 M | 5.24 | 5.7e-06 M | > 30 µM | 5.89 | -1.2 |  | CC50 (in vitro [4]): > 50 µM
11 | COc1ccc(C(O)C(C)OC2OC(CO)C(O)C(O)C2O)cc1 (stereo not shown) [NCGC00385130-01] | 9.00 | 4 | 0 | -28.221 |  |  | -87.993 | 2.02e-05 M | 4.69 | 2.02e-05 M | > 30 µM | 8.00 | -3 | > 50 µM | 
12 | COc1cc2c(c(OC)c1CC=C(C)C)C[C@H](c1ccc(O)c(CC=C(C)C)c1O)CO2 [NCGC00385627-01] | 4.94 | 4 | -33.338 | -100.29 |  |  | -25.574 | 1.78e-05 M | 4.75 | 1.78e-05 M | > 30 µM | 4.79 |  | > 50 µM | 
